These results are taken from patent publication US10077247B2, “Tricyclic spiro compound” (ONO PHARMACEUTICAL CO., LTD., priority 2015, dated 2018).

The structures appear in SMILES notation.

As usually defined, the IC50 is the point on the concentration scale where inhibition reaches its midpoint. The low end stands for higher potency, the high end for lower potency.

One data set has as its target rat EP4 receptor (Rattus norvegicus (Rat), UniProt P43114). The experiment in a line: EP4 antagonistic activity measurement using prostanoid receptor subtype expressing cells (cAMP). In kind it is cell-based. The conditions noted are these: CHO cells expressing rat EP4 receptor; inhibition of cAMP production by PGE2 10 nM. The protocol:
CHO cells expressing rat EP4 receptor subtypes were prepared according to the methods of Nishigaki et al. (FEBS Letters, Vol. 364, p. 339-341, 1995), and used for experiment. Cultured subconfluent cells were detached, and suspended in an assay medium (MEM containing 1 mmol/L IBMX, 1% HSA) in a concentration of 1×10^6 cells/mL. For reaction, PGE2 was added to the cell suspension (25 μL) in a final concentration of 10 nmol/L, either alone or as a 25-μL PGE2 solution containing the test compound. After 30 minutes of reaction at room temperature, the amount of cAMP in the cells was quantified according to the method in the descriptions of the cAMP assay kit (CISBIO).
The antagonistic effect (IC50 value) of the test compound was calculated as a value that represents an inhibition rate against a reaction with PGE2 alone at 10 nM, a concentration that produces a submaximal cAMP producing effect.
For orientation: Changes in cAMP serve as a functional read-out for many G protein-coupled receptors.

Data set [1] is described as follows: Pharmacokinetics test (hepatic microsome stability test). The conditions noted are these: human hepatic microsome 1 mg/mL, 37° C., 60 min, 1 μmol/L.

Sequence of rat EP4 receptor (P43114 whole entry): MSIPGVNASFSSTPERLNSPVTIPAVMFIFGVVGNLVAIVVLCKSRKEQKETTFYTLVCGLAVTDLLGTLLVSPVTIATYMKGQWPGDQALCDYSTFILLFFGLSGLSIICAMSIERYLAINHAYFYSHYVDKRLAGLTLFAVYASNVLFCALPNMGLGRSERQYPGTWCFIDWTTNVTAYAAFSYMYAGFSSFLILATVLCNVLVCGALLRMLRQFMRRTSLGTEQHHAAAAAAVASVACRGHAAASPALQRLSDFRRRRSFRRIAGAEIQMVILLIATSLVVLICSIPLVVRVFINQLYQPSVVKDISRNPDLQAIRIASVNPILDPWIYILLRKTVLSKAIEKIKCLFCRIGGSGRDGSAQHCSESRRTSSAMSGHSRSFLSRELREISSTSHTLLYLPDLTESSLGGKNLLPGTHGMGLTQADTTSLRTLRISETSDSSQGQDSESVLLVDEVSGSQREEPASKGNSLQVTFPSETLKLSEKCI

On rat EP4 receptor, `CCOCCNC(=O)c1ccc2c(c1)[C@]1(CCO2)C[C@H]1C(=O)Nc1cc(C#N)ccc1CCCC(=O)O` [Example 2-45, 4-{4-Cyano-2-[({(2′R,4S)-6-[(2-ethoxyethyl)carbamoyl]-2,3-dihydrospiro[chromene-4,1′-cycopropan]-2′-yl}carbonyl)amino]phenyl}butanoic acid] had an IC50 of 8.3 nM. In addition, the “Remaining rate (%)” value in data set [1] is on record as 100%.

Consider `CCNC(=O)c1ccc2c(c1)[C@]1(CCO2)C[C@H]1C(=O)Nc1cc(C#N)ccc1CCCC(=O)O` [Example 2-46, 4-[4-Cyano-2-({[(2′R,4S)-6-(ethylcarbamoyl)-2,3-dihydrospiro[chromene-4,1′-cyclopropan]-2′-yl]carbonyl}amino)phenyl]butanoic acid], for which it took 3 nM to reach half-maximal inhibition against rat EP4 receptor (IC50). Further, the “Remaining rate (%)” value in data set [1] worked out at 90%.

`Cc1nnc(-c2ccc3c(c2)[C@]2(CCO3)C[C@H]2C(=O)Nc2cc(C#N)ccc2CCCC(=O)O)o1` [Example 3, 4-[4-Cyano-2-({[(2′R,4S)-6-(5-methyl-1,3,4-oxadiazol-2-yl)-2,3-dihydrospiro[chromene-4,1′-cyclopropan]-2′-yl]carbonyl}amino)phenyl]butanoic acid] had an IC50 against rat EP4 receptor of 2.7 nM. For the same compound, the “Remaining rate (%)” value in data set [1] was found to be 100%.

For the compound `Cc1noc(-c2ccc3c(c2)[C@]2(CCO3)C[C@H]2C(=O)Nc2cc(C#N)ccc2CCCC(=O)O)n1` [Example 5, 4-[4-Cyano-2-({[(2′R,4S)-6-(3-methyl-1,2,4-oxadiazol-5-yl)-2,3-dihydrospiro[chromene-4,1′-cyclopropan]-2′-yl]carbonyl}amino)phenyl]butanoic acid], the IC50 on rat EP4 receptor worked out at 2.8 nM. The “Remaining rate (%)” value in data set [1] came out at 80%.

The compound `N#Cc1ccc(CCCC(=O)O)c(NC(=O)[C@@H]2C[C@]23CCOc2ccc(-c4ccccc4)cc23)c1` [Example 7-1, 4-[4-Cyano-2-({[(2′R,4S)-6-phenyl-2,3-dihydrospiro[chromene-4,1′-cyclopropan]-2′-yl]carbonyl}amino)phenyl]butanoic acid] displayed an IC50 on rat EP4 receptor of 17 nM. The “Remaining rate (%)” value in data set [1] was found to be 81%.

Regarding `N#Cc1ccc(CCCC(=O)O)c(NC(=O)[C@@H]2C[C@]23CCOc2ccc(-c4cccnc4)cc23)c1` [Example 7-3, 4-[4-Cyano-2-({[(2′R,4S)-6-(3-pyridinyl)-2,3-dihydrospiro[chromene-4,1′-cyclopropan]-2′-yl]carbonyl}amino)phenyl]butanoic acid], the IC50 on rat EP4 receptor worked out at 3.8 nM. For the same compound, the “Remaining rate (%)” value in data set [1] came out at 72%.

`N#Cc1ccc(CCCC(=O)O)c(NC(=O)[C@@H]2C[C@]23CCOc2ccc(-n4cccn4)cc23)c1` [Example 7-4, 4-[4-Cyano-2-({[(2′R,4S)-6-(1H-pyrazol-1-yl)-2,3-dihydrospiro[chromene-4,1′-cyclopropan]-2′-yl]carbonyl}amino)phenyl]butanoic acid] returned a concentration for half-maximal inhibition (IC50) against rat EP4 receptor of 2.4 nM. Further, in data set [1], the “Remaining rate (%)” value is 71%.

For `N#Cc1ccc(CCCC(=O)O)c(NC(=O)[C@@H]2C[C@]23CCOc2ccc(N4CCCC4=O)cc23)c1` [Example 7-10, 4-[4-Cyano-2-({[(2′R,4S)-6-(2-oxo-1-pyrrolidinyl)-2,3-dihydrospiro[chromene-4,1′-cyclopropan]-2′-yl]carbonyl}amino)phenyl]butanoic acid], the IC50 on rat EP4 receptor amounted to 8.6 nM. For the same compound, in data set [1], the “Remaining rate (%)” value was 89%.

Consider `COc1ccc(-c2ccc3c(c2)[C@]2(CCO3)C[C@H]2C(=O)Nc2cc(C#N)ccc2CCCC(=O)O)cn1` [Example 7-13, 4-[4-Cyano-2-({[(2′R,4S)-6-(6-methoxy-3-pyridinyl)-2,3-dihydrospiro[chromene-4, 1′-cyclopropan]-2′-yl]carbonyl}amino)phenyl]butanoic acid], for which the IC50 against rat EP4 receptor stood at 3.5 nM. The “Remaining rate (%)” value in data set [1] was 95%.

For the compound `Cc1ccc(-c2ccc3c(c2)[C@]2(CCO3)C[C@H]2C(=O)Nc2cc(C#N)ccc2CCCC(=O)O)cn1` [Example 7-16, 4-[4-Cyano-2-({[(2′R,4S)-6-(6-methyl-3-pyridinyl)-2,3-dihydrospiro[chromene-4,1′-cyclopropan]-2′-yl]carbonyl}amino)phenyl]butanoic acid], the IC50 on rat EP4 receptor was determined as 5.7 nM. In data set [1], the “Remaining rate (%)” value came out at 80%.

In turn, `N#Cc1ccc(CCCC(=O)O)c(NC(=O)[C@@H]2C[C@]23CCOc2ccc(-c4ccc(F)nc4)cc23)c1` [Example 7-17, 4-[4-Cyano-2-({[(2′R,4S)-6-(6-fluoro-3-pyridinyl)-2,3-dihydrospiro[chromene-4, 1′-cyclopropan]-2′-yl]carbonyl}amino)phenyl]butanoic acid] yielded an IC50 on rat EP4 receptor of 6.1 nM. The “Remaining rate (%)” value in data set [1] is given as 82%.

For the compound `N#Cc1ccc(CCCC(=O)O)c(NC(=O)[C@@H]2C[C@]23CCOc2ccc(-c4cnc5[nH]ccc5c4)cc23)c1` [Example 7-19, 4-[4-Cyano-2-({[(2′R,4S)-6-(1H-pyrrolo[2,3-b]pyridin-5-yl)-2,3-dihydrospiro[chromene-4,1′-cyclopropan]-2′-yl]carbonyl}amino)phenyl]butanoic acid], the IC50 at rat EP4 receptor came out at 4.5 nM. The “Remaining rate (%)” value in data set [1] is on record as 100%.

With `CNc1ccc(-c2ccc3c(c2)[C@]2(CCO3)C[C@H]2C(=O)Nc2cc(C#N)ccc2CCCC(=O)O)cn1` [Example 7-21, 4-{4-Cyano-2-[({(2′R,4S)-6-[6-(methylamino)-3-pyridinyl]-2,3-dihydrospiro[chromene-4,1′-cyclopropan]-2′-yl}carbonyl)amino]phenyl}butanoic acid], on rat EP4 receptor, the IC50 worked out at 10 nM. Also, the “Remaining rate (%)” value in data set [1] was found to be 76%.

With `N#Cc1ccc(CCCC(=O)O)c(NC(=O)[C@@H]2C[C@]23CCOc2ccc(-c4ncco4)cc23)c1` [Example 10-3, 4-[4-Cyano-2-({[(2′R,4S)-6-(1,3-oxazol-2-yl)-2,3-dihydrospiro[chromene-4,1′-cyclopropan]-2′-yl]carbonyl}amino)phenyl]butanoic acid], at rat EP4 receptor, the IC50 came out at 5.7 nM. In data set [1], the “Remaining rate (%)” value amounted to 87%.

`Cn1cc(-c2ccc3c(c2)[C@]2(CCO3)C[C@H]2C(=O)Nc2cc(C#N)ccc2CCCC(=O)O)nn1` [Example 10-4, 4-[4-Cyano-2-({[(2′R,4S)-6-(1-methyl-1H-1,2,3-triazol-4-yl)-2,3-dihydrospiro[chromene-4,1′-cyclopropan]-2′-yl]carbonyl}amino)phenyl]butanoic acid] had an IC50 against rat EP4 receptor of 3.5 nM. The “Remaining rate (%)” value in data set [1] is on record as 73%.

`N#Cc1ccc(CCCC(=O)O)c(NC(=O)[C@@H]2C[C@]23CCOc2ccc(-c4cccnn4)cc23)c1` [Example 10-5, 4-[4-Cyano-2-({[(2′R,4S)-6-(3-pyridazinyl)-2,3-dihydrospiro[chromene-4, 1′-cyclopropan]-2′-yl]carbonyl}amino)phenyl]butanoic acid] yielded an IC50 against rat EP4 receptor of 4.1 nM. Further, in data set [1], the “Remaining rate (%)” value is 86%.

For `N#Cc1ccc(CCCC(=O)O)c(NC(=O)[C@@H]2C[C@]23CCOc2ccc(-c4ccc(F)cn4)cc23)c1` [Example 10-9, 4-[4-Cyano-2-({[(2′R,4S)-6-(5-fluoro-2-pyridinyl)-2,3-dihydrospiro[chromene-4,1′-cyclopropan]-2′-yl]carbonyl}amino)phenyl]butanoic acid], the IC50 against rat EP4 receptor turned out to be 6.7 nM. For the same compound, in data set [1], the “Remaining rate (%)” value is on record as 75%.
